The values that follow come from patent US6545037B2, “Benzenesulfonamide compounds” (Les Laboratoires Servier, priority 2000, dated 2003).

Assay [1] concerns Platelet-rich plasma (PRP). The assay can be described thus: Platelet aggregation in man induced by the TXA2 agonist U46619. It counts as cell-based. The settings on record: human PRP, U46619 1 μM. The procedure: (§1) Platelet aggregation in man
(§2) Venous blood is obtained from human volunteers who have not taken aspirin for at least 14 days prior to the experiment. The blood is removed over sodium citrate (0.109 M) (1 vol. of citrate over 9 vol. of blood). Platelet-rich plasma (PRP) is obtained by centrifugation (20° C.) at 200 g for 10 minutes. The number of platelets is on average 250000 PL/mm^3. The PRP is stored at room temperature until the test and is used within 2 hours of having been taken. The TXA2 agonist U46619 is used at a concentration of 1 μM and 5-hydroxytryptamine is used at a concentration of 10 μM, the latter in the presence of 0.3 μM adenosine diphosphate and 1 μM adrenalin.
(§3) The values indicate that the compounds of the invention are powerful platelet anti-aggregants, which act in a balanced manner on the two activation routes, that of TXA2 and that of serotonin.

Assay [2] deals with Platelet-rich plasma (PRP). The assay can be described thus: Platelet aggregation in man induced by 5-hydroxytryptamine. The note with it: human PRP, 5-hydroxytryptamine 10 μM in the presence of 0.3 μM adenosine diphosphate and 1 μM adrenalin, read-out: IC50, platelet aggregation produced by 5-hydroxytryptamine. It counts as cell-based. On the procedure: as §1, §2, §3

For the compound `O=C(O)CCc1cc(CCN2CCC(c3nsc4cc(F)ccc34)CC2)cc2c1CCC(NS(=O)(=O)c1ccc(Cl)cc1)C2` (centres unmarked) [Example 4, 3-(6-{[(4-Chlorophenyl)sulphonyl]amino}-3-{2-[4-(6-fluoro-1,2-benzisothiazol-3-yl)-1-piperidinyl]ethyl}-5,6,7,8-tetrahydro-1-naphthyl)propanoic acid], the 50% inhibitory concentration (IC50) in assay [1] is 170 nM; in assay [2] it was 230 nM.
